# Assay results published in paper PMC5779714, “Metallochaperone UreG serves as a new target for design of urease inhibitor: A novel strategy for development of antimicrobials” (PLoS Biology, 2018).
# Several values for one entry are separate records, joined by “and”; a condition that tells them apart may be missing. Equal entries are not always repeated. Where two headings read alike, the source gives them in different places.
# Key:
# [1] = target: H. pylori urease (Helicobacter pylori, UniProt P14916+P69996); type: biochemical; set-up: endogenous in cells; host or cells: H. pylori strain 26695 or a clinical isolate
# [2] = tested on: urease
# [3] = tested on: urease; remark: listed apart in the source
# [4] = tested on: urease; remark: listed apart in the source
# [5] = target: T1, urease (Proteus mirabilis, UniProt P17086+P17087+P17088); type: biochemical
# T1 construct: endogenous in cells
# [6] = target: T2, urease (Pseudomonas aeruginosa, UniProt Q9HUU5+Q9HUU6+Q9HUU8); assay: Urease activity of extracted P. aeruginosa urease (in vitro); type: biochemical
# T2 construct: endogenous in cells
# [7] = tested on: AGS cells exposed to H. pylori; assay: Cell infection model: AGS cells exposed to H. pylori pre-cultured with inhibitors; type: cell-based, human; conditions: H. pylori pre-cultured with 10 μM inhibitor 24 h; MOI 20; 24 h infection; Hp alone 28.8%
# [8] = tested on: AGS cells with H. pylori infection; assay: AGS cells with H. pylori infection, inhibitors administrated to the AGS cells (S20 Fig); type: cell-based, human; conditions: 10 μM administrated to AGS cells with H. pylori infection
# Text: As expected, low viability of AGS with the supplement of cmpd4 and cmpd8 was observed due to the toxicity of small compounds to mammalian cells. […] (PNG) Click here for additional data file.
# [9] = tested on: urease; remark: listed apart in the source
# [10] = target: UreG (Helicobacter pylori, UniProt Q09066); assay: Fluorescence-quenching titration of UreG (Kd); type: binding, H. pylori
# Protocol: Using the relation between the emission intensity at 310 nm and molecule-UreG–bound species, as well as one site-binding model, the Kd values were calculated by a logistic regression model referring to a previous report. […] All fluorescence readings were corrected for the dilution effect.
# [11] = tested on: H. pylori urease; conditions: for Normalized urease activity(%): 40 min
# Text: The starting sample with 20% urease activity was used. […] Because zero is not defined on a log scale, the blank values have been entered as 0.1.
# T1 sequence (P17087 whole entry): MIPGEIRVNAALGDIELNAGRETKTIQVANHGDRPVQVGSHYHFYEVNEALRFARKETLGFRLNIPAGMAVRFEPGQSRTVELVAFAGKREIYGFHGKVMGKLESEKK
# T1 sequence (P17088 whole entry): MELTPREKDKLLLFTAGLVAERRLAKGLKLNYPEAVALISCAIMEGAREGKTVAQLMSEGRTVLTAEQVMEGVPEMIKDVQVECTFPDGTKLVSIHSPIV
# T1 sequence (P17086 whole entry): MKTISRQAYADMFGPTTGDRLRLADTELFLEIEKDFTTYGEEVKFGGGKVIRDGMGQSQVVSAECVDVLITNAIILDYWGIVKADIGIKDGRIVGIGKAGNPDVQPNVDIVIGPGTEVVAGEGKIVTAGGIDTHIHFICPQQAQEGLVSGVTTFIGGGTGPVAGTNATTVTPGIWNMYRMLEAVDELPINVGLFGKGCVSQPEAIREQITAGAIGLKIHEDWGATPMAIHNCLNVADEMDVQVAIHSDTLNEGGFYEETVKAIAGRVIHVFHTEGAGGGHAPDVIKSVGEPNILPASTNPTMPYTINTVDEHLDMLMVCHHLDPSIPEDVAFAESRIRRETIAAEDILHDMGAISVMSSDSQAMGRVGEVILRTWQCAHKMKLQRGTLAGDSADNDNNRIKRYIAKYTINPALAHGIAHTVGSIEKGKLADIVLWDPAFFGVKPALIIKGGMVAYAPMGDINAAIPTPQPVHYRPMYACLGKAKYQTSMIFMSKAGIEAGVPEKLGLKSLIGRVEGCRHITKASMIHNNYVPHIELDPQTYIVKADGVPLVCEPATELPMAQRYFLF
# H. pylori urease (Helicobacter pylori, UniProt P14916+P69996), sequence (P69996 whole entry): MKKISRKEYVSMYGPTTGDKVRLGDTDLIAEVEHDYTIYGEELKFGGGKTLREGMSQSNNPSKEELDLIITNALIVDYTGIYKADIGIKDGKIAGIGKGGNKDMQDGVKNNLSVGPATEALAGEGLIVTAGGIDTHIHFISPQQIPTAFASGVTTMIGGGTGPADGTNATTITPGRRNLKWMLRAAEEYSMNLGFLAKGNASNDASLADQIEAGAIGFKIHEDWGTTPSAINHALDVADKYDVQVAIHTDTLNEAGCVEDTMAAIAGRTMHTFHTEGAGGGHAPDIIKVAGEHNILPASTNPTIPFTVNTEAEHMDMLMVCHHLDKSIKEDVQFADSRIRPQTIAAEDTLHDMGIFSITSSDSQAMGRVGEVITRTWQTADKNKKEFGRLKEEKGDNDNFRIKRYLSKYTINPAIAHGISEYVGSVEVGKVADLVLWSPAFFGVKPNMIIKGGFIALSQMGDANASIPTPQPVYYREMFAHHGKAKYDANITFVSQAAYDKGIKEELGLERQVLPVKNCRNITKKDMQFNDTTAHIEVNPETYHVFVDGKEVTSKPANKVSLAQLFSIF
# H. pylori urease (Helicobacter pylori, UniProt P14916+P69996), sequence (P14916 whole entry): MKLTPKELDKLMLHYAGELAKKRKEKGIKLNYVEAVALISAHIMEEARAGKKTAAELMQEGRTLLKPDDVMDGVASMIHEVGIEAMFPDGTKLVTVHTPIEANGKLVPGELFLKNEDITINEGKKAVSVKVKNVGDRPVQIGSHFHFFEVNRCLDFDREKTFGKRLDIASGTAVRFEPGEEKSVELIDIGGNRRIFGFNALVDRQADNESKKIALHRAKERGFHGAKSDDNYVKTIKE
# UreG, sequence (Q09066 whole entry): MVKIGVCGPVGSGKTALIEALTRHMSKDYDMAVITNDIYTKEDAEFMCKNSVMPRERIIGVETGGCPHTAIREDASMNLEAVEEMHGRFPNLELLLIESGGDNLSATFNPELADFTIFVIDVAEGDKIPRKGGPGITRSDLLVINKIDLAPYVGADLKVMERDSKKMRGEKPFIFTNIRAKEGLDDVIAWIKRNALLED
# T2 sequence (Q9HUU6 whole entry): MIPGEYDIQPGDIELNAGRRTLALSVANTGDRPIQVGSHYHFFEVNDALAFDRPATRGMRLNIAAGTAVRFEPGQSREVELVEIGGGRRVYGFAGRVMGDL
# T2 sequence (Q9HUU5 whole entry): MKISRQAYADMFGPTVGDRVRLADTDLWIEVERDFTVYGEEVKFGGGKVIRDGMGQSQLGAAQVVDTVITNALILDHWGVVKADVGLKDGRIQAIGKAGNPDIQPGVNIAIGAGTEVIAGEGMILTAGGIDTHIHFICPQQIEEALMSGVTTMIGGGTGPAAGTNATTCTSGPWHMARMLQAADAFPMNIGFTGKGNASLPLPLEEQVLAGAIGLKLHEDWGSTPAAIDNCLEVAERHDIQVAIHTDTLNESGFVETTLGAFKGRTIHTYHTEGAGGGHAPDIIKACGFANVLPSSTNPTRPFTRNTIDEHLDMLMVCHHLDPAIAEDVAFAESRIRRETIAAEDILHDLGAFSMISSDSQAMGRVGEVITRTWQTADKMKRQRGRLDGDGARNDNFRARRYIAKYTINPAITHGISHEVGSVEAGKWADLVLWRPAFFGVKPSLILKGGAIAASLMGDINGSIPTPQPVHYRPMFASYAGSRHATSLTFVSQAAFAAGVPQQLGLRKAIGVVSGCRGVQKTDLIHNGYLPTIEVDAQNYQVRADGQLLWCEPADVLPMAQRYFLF
# T2 sequence (Q9HUU8 whole entry): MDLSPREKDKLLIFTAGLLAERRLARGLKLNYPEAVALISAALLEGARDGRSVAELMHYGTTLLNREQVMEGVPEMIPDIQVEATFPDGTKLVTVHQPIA
structure (smiles),measurement,setting,value
"CC(=O)NO [AHA, acetohydroxamic acid]",IC50,"[1]; AHA incubated with extracted urease, ± SD",1320 ± 291 µM
same,Normalized urease activity(%) (AHA),[1]; AHA log[μM] 1.89279,109.4% and 109.395%
same,Normalized urease activity(%) (AHA),[1]; AHA log[μM] 2.19382,96.0% and 96.0334%
same,Normalized urease activity(%) (AHA),[1]; AHA log[μM] 2.49485,91.9% and 91.858%
same,Normalized urease activity(%) (AHA),[1]; AHA log[μM] 2.79588,93.3% and 93.3194%
same,Normalized urease activity(%) (AHA),[1]; AHA log[μM] 3.09691,51.1% and 51.1482%
same,Normalized urease activity(%) (AHA),[1]; AHA log[μM] 3.39794,20.5% and 20.4593%
same,Normalized urease activity(%) (AHA),[1]; AHA log[μM] 3.69897,2.7% and 2.714%
same,Normalized urease activity(%) (AHA),[1]; AHA log[μM] 4,1.3% and 1.253%
same,Normalized urease activity(%) (AHA),[1]; AHA log[μM] 4.30103,1.3% and 1.253%
same,Normalized urease activity(%),[2]; log(AHA[μM]) 1.79588,92.5521%
same,Normalized urease activity(%),[2]; log(AHA[μM]) 2.09691,93.0486%
same,Normalized urease activity(%),[2]; log(AHA[μM]) 2.39794,89.0764%
same,Normalized urease activity(%),[2]; log(AHA[μM]) 2.69897,86.0973%
same,Normalized urease activity(%),[2]; log(AHA[μM]) 3,82.6216%
same,Normalized urease activity(%),[2]; log(AHA[μM]) 3.30103,72.6911%
same,Normalized urease activity(%),[2]; log(AHA[μM]) 3.60206,51.3406%
same,Normalized urease activity(%),[2]; log(AHA[μM]) 3.90309,15.0943%
same,Normalized urease activity(%),[2]; log(AHA[μM]) 4.20412,3.674%
same,Normalized urease activity(%),[2]; log(AHA[μM]) 4.50515,1.688%
same,Normalized urease activity(%),[3]; log(AHA[μM]) 1.39794,85.3556%
same,Normalized urease activity(%),[3]; log(AHA[μM]) 2.09691,97.9079%
same,Normalized urease activity(%),[3]; log(AHA[μM]) 2.39794,94.4212%
same,Normalized urease activity(%),[3]; log(AHA[μM]) 2.69897,97.2106%
same,Normalized urease activity(%),[3]; log(AHA[μM]) 3,105.579%
same,Normalized urease activity(%),[3]; log(AHA[μM]) 3.30103,100%
same,Normalized urease activity(%),[3]; log(AHA[μM]) 3.60206,74.198%
same,Normalized urease activity(%),[3]; log(AHA[μM]) 3.90309,38.6332%
same,Normalized urease activity(%),[3]; log(AHA[μM]) 4.20412,16.318%
same,Normalized urease activity(%),[3]; log(AHA[μM]) 4.50515,9.344%
same,Normalized urease activity(%),[4]; log(AHA[μM]) 1.79588,92.1939%
same,Normalized urease activity(%),[4]; log(AHA[μM]) 2.09691,91.7831%
same,Normalized urease activity(%),[4]; log(AHA[μM]) 2.39794,89.7288%
same,Normalized urease activity(%),[4]; log(AHA[μM]) 2.69897,88.9071%
same,Normalized urease activity(%),[4]; log(AHA[μM]) 3,90.1397%
same,Normalized urease activity(%),[4]; log(AHA[μM]) 3.30103,80.6902%
same,Normalized urease activity(%),[4]; log(AHA[μM]) 3.60206,55.6286%
same,Normalized urease activity(%),[4]; log(AHA[μM]) 3.90309,27.691%
same,Normalized urease activity(%),[4]; log(AHA[μM]) 4.20412,14.1331%
same,Normalized urease activity(%),[4]; log(AHA[μM]) 4.50515,10.8463%
same,Normalized urease activity(%),[5]; log(AHA[μM]) 1.29073,83.9311%
same,Normalized urease activity(%),[5]; log(AHA[μM]) 1.59176,78.3381%
same,Normalized urease activity(%),[5]; log(AHA[μM]) 1.89279,61.9141%
same,Normalized urease activity(%),[5]; log(AHA[μM]) 2.19382,45.934%
same,Normalized urease activity(%),[5]; log(AHA[μM]) 2.49485,31.2855%
same,Normalized urease activity(%),[5]; log(AHA[μM]) 2.79588,25.6037%
same,Normalized urease activity(%),[5]; log(AHA[μM]) 3.09691,17.6136%
same,Normalized urease activity(%),[5]; log(AHA[μM]) 3.39794,16.1932%
same,Normalized urease activity(%),[5]; log(AHA[μM]) 3.69897,12.3757%
same,Normalized urease activity(%),[5]; log(AHA[μM]) 4,7.315%
same,Normalized urease activity(%),[6]; log(AHA[μM]) 1.79588,78.186%
same,Normalized urease activity(%),[6]; log(AHA[μM]) 2.09691,95.4076%
same,Normalized urease activity(%),[6]; log(AHA[μM]) 2.39794,91.1022%
same,Normalized urease activity(%),[6]; log(AHA[μM]) 2.69897,92.2503%
same,Normalized urease activity(%),[6]; log(AHA[μM]) 3,91.3892%
same,Normalized urease activity(%),[6]; log(AHA[μM]) 3.30103,81.0563%
same,Normalized urease activity(%),[6]; log(AHA[μM]) 3.60206,50.3444%
same,Normalized urease activity(%),[6]; log(AHA[μM]) 3.90309,18.7715%
same,Normalized urease activity(%),[6]; log(AHA[μM]) 4.20412,5.568%
same,Normalized urease activity(%),[6]; log(AHA[μM]) 4.50515,3.846%
same,Normalized cell survival (%),[7],40.5% ± 8.2% and 40.5405%
same,Ammonia in medium,[8],2.273 mM
same,Normalized cell survival (%),[8],14.4144%
same,Normalized urease activity(%),[9]; log(AHA[μM]) 1.79588,82.0618%
same,Normalized urease activity(%),[9]; log(AHA[μM]) 2.09691,76.8393%
same,Normalized urease activity(%),[9]; log(AHA[μM]) 2.39794,67.9837%
same,Normalized urease activity(%),[9]; log(AHA[μM]) 2.69897,58.901%
same,Normalized urease activity(%),[9]; log(AHA[μM]) 3,52.7702%
same,Normalized urease activity(%),[9]; log(AHA[μM]) 3.30103,45.277%
same,Normalized urease activity(%),[9]; log(AHA[μM]) 3.60206,27.5659%
same,Normalized urease activity(%),[9]; log(AHA[μM]) 3.90309,11.6712%
same,Normalized urease activity(%),[9]; log(AHA[μM]) 4.20412,3.951%
same,Normalized urease activity(%),[9]; log(AHA[μM]) 4.50515,2.589%
"Nc1nc2c(ncn2[C@@H]2O[C@H](COP(=O)(O)OP(=O)(O)OP(=O)(O)O)[C@@H](O)[C@H]2O)c(=O)[nH]1 [GTP, guanosine-5'-triphosphate, reference compound]",Kd,[10],~65 µM
same,fluorescence intensity (a.u.),[10]; log(ligand[μM]) 0,3320 a.u.
same,fluorescence intensity (a.u.),[10]; log(ligand[μM]) 0.30103,3210 a.u.
same,fluorescence intensity (a.u.),[10]; log(ligand[μM]) 0.60206,2994.67 a.u.
same,fluorescence intensity (a.u.),[10]; log(ligand[μM]) 0.90309,2943.33 a.u.
same,fluorescence intensity (a.u.),[10]; log(ligand[μM]) 1.20412,2860.67 a.u.
same,fluorescence intensity (a.u.),[10]; log(ligand[μM]) 1.50515,2655 a.u.
same,fluorescence intensity (a.u.),[10]; log(ligand[μM]) 1.80618,2320.33 a.u.
same,fluorescence intensity (a.u.),[10]; log(ligand[μM]) 2.10721,1866.33 a.u.
same,fluorescence intensity (a.u.),[10]; log(ligand[μM]) -1.30103,3394.33 a.u.
[Ni+2] [Ni],Normalized urease activity(%),"[11]; supplement 0.05 (head prints CBS(μM )), starting sample 20% activity",19.0%
same,Normalized urease activity(%),[11]; supplement 0.1 (head prints CBS(μM )),18.6%
same,Normalized urease activity(%),[11]; supplement 0.2 (head prints CBS(μM )),18.3%
same,Normalized urease activity(%),[11]; supplement 0.4 (head prints CBS(μM )),17.5%
same,restoration of urease activity,[11]; supplemented to CBS-treated bacterial cell lysate,failed to restore the urease activity completely
